Reference: patent publication US20260028337A1, “COMPOUND FOR INHIBITING IRAK4 ACTIVITY AND USE THEREOF” (SHENZHEN ZHONGGE BIOLOGICAL TECHNOLOGY CO., LTD., priority 2022, published 2026)
Counter-ions that a name gives are not always drawn.

Target: IRAK4 kinase (Homo sapiens (Human), UniProt Q9NWZ3)
Test: IRAK4 Kinase Inhibition Assay (Cisbio HTRF KinEASE-STK S1 kit)
Assay type: biochemical
Settings: IRAK4 kinase protein 10 nM, ATP 200 μM, STK Substrate 1-biotin 1 μM, 37° C. 2 h, read-out: IC50 (nM), IRAK4 kinase inhibitory activity
Protocol: Test Example 1. IRAK4 Kinase Inhibition Assay
In this assay, Cisbio HTRF KinEASE-STK SI kit (62S 1 PEB) was used, in which assay/detection buffer, STK Substrate 1-biotin, Streptavidin-XL665, STK Antibody-Cryptate were contained.
After adding compound/DMSO to a 384-well plate (PerkinElmer 6008280) using Echo 665, 5 μL of 2-fold reaction concentration of IRAK4 kinase protein (final concentration: 10 nM) dissolved with assay buffer [1 volume of 5× kinase buffer+20 mM magnesium chloride (Sigma) solution+1 mM DTT (Alfa Aesar) solution+4 volumes deionized water] was added, followed by sealing the shallow well plate, shaking and then centrifuging at 1000 rpm for 1 min, and incubating at room temperature for 5 min; then 5 μL of 2-fold reaction concentration of a 1:1 mixture of STK Substrate 1-biotin (final concentration: 1 μM) and ATP (Sigma A1852) (final concentration: 200 μM) formulated with assay buffer was added, followed by sealing the shallow well plate, shaking and then centrifuging at 1000 rpm for 1 min, and incubating at 37° C. for 2 h, and then 10 μL of a 1:1 mixture of Streptavidin-XL665 (final concentration: 62.5 nM) and STK-antibody-cryptate dissolved with detection buffer was added, followed by sealing the shallow well plate, shaking and then centrifuging at 1000 rpm for 1 min, and incubating at room temperature for 1 h, and thereafter reading the value at the wavelength of 620 nm/665 nm using a microplate reader. The data were analyzed using Prism 9.3 software, and the IC50 value of IRAK4 kinase inhibition was fitted using a four parameter Logistic equation.

Chain of IRAK4 kinase (Q9NWZ3 whole entry): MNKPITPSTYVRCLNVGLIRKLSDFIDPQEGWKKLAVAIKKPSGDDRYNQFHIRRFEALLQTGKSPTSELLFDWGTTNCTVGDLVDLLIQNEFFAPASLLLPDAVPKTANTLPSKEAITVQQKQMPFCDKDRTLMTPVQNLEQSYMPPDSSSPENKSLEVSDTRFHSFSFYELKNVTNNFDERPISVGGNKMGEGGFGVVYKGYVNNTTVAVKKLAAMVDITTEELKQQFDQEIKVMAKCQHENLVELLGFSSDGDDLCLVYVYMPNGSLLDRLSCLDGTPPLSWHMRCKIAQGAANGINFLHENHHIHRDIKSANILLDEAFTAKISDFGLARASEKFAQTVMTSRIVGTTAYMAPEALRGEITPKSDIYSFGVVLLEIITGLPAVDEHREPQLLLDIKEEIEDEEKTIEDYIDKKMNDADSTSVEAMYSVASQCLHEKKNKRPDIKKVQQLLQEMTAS

| IC50 | SMILES |
| --- | --- |
| 100 to 1000 nM | O=S1(=O)CCN(c2ccn3ncc(-c4cn(-c5cn([C@H]6CC[C@H](CO)CC6)nc5C(F)F)nn4)c3n2)CC1 [Compound 91A, 4-(3-(1-(3-(difluoromethyl)-1-((1r,4r)-4-(methylol)cyclohexyl)-1H-pyrazol-4-yl)-1H-1,2,3-triazol-4-yl)pyrazolo[1,5-a]pyrimidin-5-yl)thiomorpholine 1,1-dioxide] |
| < 100 nM | CC(C)(O)CCNc1ccn2ncc(-c3cn(-c4cn([C@H]5CC[C@H](CO)CC5)nc4C(F)F)nn3)c2n1 [Compound 92A, 4-((3-(1-(3-(difluoromethyl)-1-((1r,4r)-4-(methylol)cyclohexyl)-1H-pyrazol-4-yl)-1H-1,2,3-triazol-4-yl]pyrazolo[1,5-a]pyrimidin-5-yl)amino)-2-methylbutan-2-ol] |
| < 100 nM | CC1(O)CCN(c2ccn3ncc(-c4cn(-c5cn([C@H]6CC[C@H](CO)CC6)nc5C(F)F)nn4)c3n2)CC1 [Compound 93A, 1-(3-(1-(3-difluoromethyl)-1-((1r,4r)-4-(methylol)cyclohexyl)-1H-pyrazol-4-yl)-1H-1,2,3-triazol-4-ylpyrazolo[1,5-a]pyrimidin-5-yl)-4-methylpiperidin-4-ol] |
| < 100 nM | OC[C@H]1CC[C@H](n2cc(-n3cc(-c4cnn5ccc(NCC6CC6)nc45)nn3)c(C(F)F)n2)CC1 [Compound 94A, ((1r,4r)-4-(4-(4-(5-((cyclopropylmethyl)amino)pyrazolo[1,5-a]pyrimidin-3-yl)-1H-1,2,3-triazol-1-yl)-3-(difluoromethyl)-1H-pyrazol-1-yl)cyclohexyl)methanol] |
| 100 to 1000 nM | CN1CCN(c2ccn3ncc(-c4cn(-c5cn([C@H]6CC[C@H](CO)CC6)nc5C(F)F)nn4)c3n2)CC1 [Compound 95A, (1R,4R)-4-(3-difluoromethyl)-4-(4-(5-(4-methylpiperazin-1-yl)pyrazolo[1,5-a]pyrimidin-3-yl)-1H-1,2,3-triazol-1-yl)-1H-pyrazol-1-yl)cyclohexylmethanol formate] |
| 100 to 1000 nM | OC[C@H]1CC[C@H](n2cc(-n3cc(-c4cnn5ccc(N6CC(O)C6)nc45)nn3)c(C(F)F)n2)CC1 [Compound 96A, 1-(3-(1-(3-difluoromethyl)-1-((1r,4r)-4-(methylol)cyclohexyl)-1H-pyrazol-4-yl)-1H-1,2,3-triazol-4-ylpyrazolo[1,5-a]pyrimidin-5-yl)azetidin-3-ol] |
| < 100 nM | OC[C@H]1CC[C@H](n2cc(-n3cc(-c4cnn5ccc(N6CCC(O)CC6)nc45)nn3)c(C(F)F)n2)CC1 [Compound 97A] |
| < 100 nM | OC[C@H]1CC[C@H](n2cc(-n3cc(-c4cnn5ccc(N6CCCOCC6)nc45)nn3)c(C(F)F)n2)CC1 [Compound 98A] |
| 100 to 1000 nM | OCC1CCC(n2cc(-n3cc(-c4cnn5ccc(N6CC7CC[C@H](C6)O7)nc45)nn3)c(C(F)F)n2)CC1 (stereo partly shown) [Compound 99A, ((1r,4r)-4-(4-(4-(5-(8-oxa-3-azabicyclo[3.2.1]oct-3-yl)pyrazolo[1,5-a]pyrimidin-3-yl)-1H-1,2,3-triazol-1-yl)-3-(difluoromethyl)-1H-pyrazol 1-yl)cyclohexyl)methanol] |
| < 100 nM | OC[C@H]1CC[C@H](n2cc(-n3cc(-c4cnn5ccc(N6CCCC(O)C6)nc45)nn3)c(C(F)F)n2)CC1 (stereo partly shown) [Compound 100A] |
| 100 to 1000 nM | OC[C@H]1CC[C@H](n2cc(-n3cc(-c4cnn5ccc(N6CCC(O)C6)nc45)nn3)c(C(F)F)n2)CC1 (stereo partly shown) [Compound 101A] |
| 100 to 1000 nM | CN(C)C1CCN(c2ccn3ncc(-c4cn(-c5cn(C6CCC(CO)CC6)nc5C(F)F)nn4)c3n2)CC1 (stereo not shown) [Compound 102A, ((1r, 4r)-4-(3-(difluoromethyl)-4-(4-(5-(4-(dimethylamino)piperidin-1-yl)pyrazolo[1,5-a]pyrimidin-3-yl)-1H-1,2,3-triazol-1-yl)-1H-pyrazol-1-ylcyclohexyl)methanol] |
| < 100 nM | N[C@H]1CCCN(c2ccn3ncc(-c4cn(-c5cn(C6CCC(CO)CC6)nc5C(F)F)nn4)c3n2)C1 (stereo partly drawn) [Compound 103A, ((1r, 4r)-4-(4-(4-(5-((S)-3-aminopiperidin-1-yl)pyrazolo[1,5-a]pyrimidin-3-yl)-1H-1,2,3-triazol-1-yl)-3-(difluoromethyl)-1H-pyrazol-1-yl]cyclohexyl) methanol] |
| < 100 nM | OC[C@H]1CC[C@H](n2cc(-n3cc(-c4cnn5ccc(N6CCOCC6)nc45)nn3)c(C(F)F)n2)CC1 [Compound 104A, ((1r,4r)-4-(3-(difluoromethyl)-4-(4-(5-morpholinyl-pyrazolo[1,5-a]pyrimidin-3-yl)-1H-1,2,3-triazol-1-yl)-1H-pyrazol-1-yl]cyclohexyl)methanol] |
| 100 to 1000 nM | OCC1CCC(n2cc(-n3cc(-c4cnn5ccc(N6C[C@H]7C[C@@H]6CO7)nc45)nn3)c(C(F)F)n2)CC1 (stereo partly drawn) [Compound 105A, ((1R,4r)-4-(4-(4-(5-((1R,4r)-2-oxa-5-azabicyclo[2.2.1]heptan-5-yl)pyrazolo[1,5-a]pyrimidin-3-yl)-1H-1,2,3-triazol-1-yl)-3-(difluoromethyl)-1H-pyrazol-1-yl)cyclohexyl)methanol] |
| < 100 nM | N[C@@H]1CCCN(c2ccn3ncc(-c4cn(-c5cn(C6CCC(CO)CC6)nc5C(F)F)nn4)c3n2)C1 (stereo partly shown) [Compound 106A] |
| < 100 nM | OCC1CCC(n2cc(-n3cc(-c4cnn5ccc(N[C@H]6CCCC[C@H]6O)nc45)nn3)c(C(F)F)n2)CC1 (stereo partly drawn) [Compound 107A, (1R,2S)-2-((3-(1-(3-(difluoromethyl)-1-((1R,4S)-4-(methylol)cyclohexyl)-1H-pyrazol-4-yl)-1H-1,2,3-triazol-4-yl]pyrazolo[1,5-a]pyrimidin-5-yl)amino)cyclohexan-1-ol] |
| < 100 nM | NC1CN(c2ccn3ncc(-c4cn(-c5cn([C@H]6CC[C@H](CO)CC6)nc5C(F)F)nn4)c3n2)CC(F)(F)C1 (stereo partly shown) [Compound 108A] |
| < 100 nM | C[C@H]1CN(c2ccn3ncc(-c4cn(-c5cn(C6CCC(CO)CC6)nc5C(F)F)nn4)c3n2)C[C@H](C)O1 (stereo partly shown) [Compound 109A] |
| < 100 nM | OC[C@H]1CC[C@H](n2cc(-n3cc(-c4cnn5ccc(N[C@@H]6CCCC[C@@H]6O)nc45)nn3)c(C(F)F)n2)CC1 [Compound 111A, (1S,2R)-2-((3-(1-(3-(difluoromethyl)-1-((1r,4R)-4-(methylol)cyclohexyl)-1H-pyrazol-4-yl)-1H-1,2,3-triazol-4-yl]pyrazolo[1,5-a]pyrimidin-5-yl)amino)cyclohexan-1-ol] |
| < 100 nM | OCC1CCC(n2cc(-n3cc(-c4cnn5ccc(N6CCC[C@H](O)C6)nc45)nn3)c(C(F)F)n2)CC1 (stereo partly drawn) [Compound 112A, (S)-1-(3-(1-(3-(difluoromethyl)-1-((1r,4r)-4-(methylol)cyclohexyl)-1H-pyrazol-4-yl)-1H-1,2,3-triazol-4-yl]pyrazolo[1,5-a]pyrimidin-5-yl)piperidin-3-ol] |
| < 100 nM | OCC1CCC(n2cc(-n3cc(-c4cnn5ccc(N6CCC[C@@H](O)C6)nc45)nn3)c(C(F)F)n2)CC1 (stereo partly drawn) [Compound 113A, (R)-1-(3-(1-(3-(difluoromethyl)-1-((1r,4r)-4-(methylol)cyclohexyl)-1H-pyrazol-4-yl)-1H-1,2,3-triazol-4-yl]pyrazolo[1,5-a]pyrimidin-3-yl) piperidin-3-ol] |
